Assay [1] relates to H1R. Set-up: method as in Slack et al., 2011a,b. The conditions noted are these: ex vivo organ bath, antagonists continuously removed; ref Slack et al., 2011a,b; cited from earlier work.
Assay [2] has as its target T1, H1R endogenously expressed in HeLa cells (Homo sapiens, UniProt P35367). Kind of assay: Receptor recovery of calcium mobilization after antagonist washout. It counts as cell-based. More on the design: HeLa cells, endogenously expressing the H1R at low, but physiological relevant densities, were used in both assays; endogenous in cells; host or cells: HeLa cells (in-house cell biobank). The note with it: for RecT (receptor recovery time), calcium mobilization: reciprocal of krec. As to the method: HeLa cells were cultured as described above. HeLa cells were lifted from a subconfluent dish by incubating with a 1x trypsin solution for 4 min. Cells were then seeded in a black, clear bottom 96-well plate, with 2 × 10^4 cells per well. Subsequently, the cells were pre-incubated overnight in culture medium with a range of antagonist concentrations or without antagonist, as is specified per assay format below. After 18–20 h, assay buffer was prepared by supplementing HBSS with 20 mM HEPES pH 7.4 and 2.5 mM probenecid (from a 2.5 × 10^-1 M stock in water). Dye solution was then prepared by dissolving one aliquot of Fluo4 NW in 22 mL assay buffer. Medium was aspirated and Fluo4 NW dye solution was supplemented to the cells and incubated for an hour at 37°C in the presence of the respective antagonist. After labeling the cells with Fluo4 NW, readout of the calcium response was measured per individual well in series.
One 96-well plate with HeLa cells was separated into four sections and each section was pre-incubated with a respective 10 times Ki concentrations of antihistamine or vehicle condition. […] Following Fluo4 NW loading in the presence of the respective concentration antihistamine, cells were washed and reconstituted in 100 μL assay buffer that was pre-heated to 37°C (t0). […] The first measurement was started approximately 2 min after washing the cells and subsequent wells were measured with 75 s intervals. […] The data was analyzed using non-linear regression with a one-phase association model in GraphPad Prism according to Eq. 3.
(3) Y=Y0+(Ymax−Y0)×(1−e^(−krec×t))
For all other antihistamines a free fit of Ymax was allowed, reported in the results as the steady-state recovery (%). Receptor recovery times (RecT) were calculated for each experiment as the reciprocal of the krec. Reported krec and RecT values are the mean ± SEM of ≥3 experiments.
A general note: Calcium assays in cells follow changes in intracellular calcium, usually with a dye or a luminescent sensor.

The target of assay [3] is T1, H1R endogenously expressed in HeLa cells.
Protocol: (1) normalizedfluorescentresponse=FHA−Fb/Ft−Fb
The AUC was quantified using GraphPad Prism (GraphPad Software, San Diego, CA, United States). Settings were as such that peaks were ignored when there was less than 1% difference between min and max fluorescence and/or peaks shaped by fewer than 10 data points. The resulting dose-response curves were analyzed by non-linear regression according to Eq. 2.
Assay [4] has as its system H1R. Set-up: method as in Gillard et al., 2002; Schoepke et al., 2013. The note with it: ref Gillard et al., 2002; Schoepke et al., 2013; cited from earlier work.
For assay [5], the target named is T1, H1R endogenously expressed in HeLa cells. The assay is described as follows: DMR receptor recovery after washout. The note with it: 10x Ki pre-incubation, 1 h and 2 h after washout.
Protocol: For the measurement of DMR in HeLa cells upon treatment by agonists and antagonists, a resonant waveguide grating (RWG) biosensor method was used.
HeLa cells were grown in DMEM High Glucose medium with L-Glutamine supplemented with 10% FBS and 1x penicillin/streptomycin [all reagents were obtained from Capricorn Scientific GmbH (Ebsdorfergrund, Germany)] and incubated in humidified atmosphere at 37°C and 5% CO2 in air.
As vehicle control wells with medium/DMSO treated cells were included. The LFC plate was incubated overnight in a humidified atmosphere at 37°C and 5% CO2 in air. On the next day assay buffer [HBSS (Sigma–Aldrich), 20 mM HEPES (Sigma–Aldrich), 0.5% (v/v) DMSO] was adapted to room temperature before use. 22–24 h after cell seeding antagonists were removed from the LFC plate and wells were washed four times with label-free assay buffer (25 μL/ well). The total assay volume after the washing step was 30 μL/ well.
In all experiments a DMSO concentration of 0.5% (v/v) was not exceeded. The LFC plate was placed in an EnSpire® Multimode Plate Reader equipped with Corning® Epic® Label-free technology.
Data was analyzed individually for each quadrant of the 384 well LFC plate using GraphPad Prism.
Depicted values represent mean and standard deviation of two independent experiments.
For assay [6] the target is unchanged. The source holds these as a separate data set.
[7] abbreviates: 10x Ki pre-incubation, washout, 37°C, mean ± SEM of ≥3.

Where two headings read alike, the source gives them in different places.

T1 sequence (P35367 whole entry): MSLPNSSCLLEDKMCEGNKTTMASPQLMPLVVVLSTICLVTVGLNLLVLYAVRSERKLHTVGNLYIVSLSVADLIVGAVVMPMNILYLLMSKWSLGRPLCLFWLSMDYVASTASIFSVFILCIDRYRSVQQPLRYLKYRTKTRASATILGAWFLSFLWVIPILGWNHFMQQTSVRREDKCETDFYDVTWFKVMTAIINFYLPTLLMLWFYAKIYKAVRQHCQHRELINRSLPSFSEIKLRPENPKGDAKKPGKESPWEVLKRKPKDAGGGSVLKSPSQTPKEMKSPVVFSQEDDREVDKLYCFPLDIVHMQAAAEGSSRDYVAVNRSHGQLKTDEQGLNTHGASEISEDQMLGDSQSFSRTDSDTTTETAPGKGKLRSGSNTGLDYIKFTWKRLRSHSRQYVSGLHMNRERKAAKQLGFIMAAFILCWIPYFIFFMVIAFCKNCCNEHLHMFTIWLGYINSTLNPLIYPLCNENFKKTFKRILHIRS

For the compound `O=c1c2ccccc2c(Cc2ccc(Cl)cc2)nn1C[C@H]1CCCN1CCCCc1ccc(OCCCN2CCCCCC2)cc1` [GSK1004723], in the assay on H1R [1], the “inhibition of histamine-induced, H1R mediated bronchial contraction (in words)” value is “retained a long inhibition”.

Regarding `O=C(O)COCCN1CCN([C@H](c2ccccc2)c2ccc(Cl)cc2)CC1` [Levocetirizine, levocetirizine], the “krec (recovery rate of histamine induced calcium mobilization)” value in assay [2] (10x Ki overnight pre-incubation, washout, 10^-5 M histamine, 37°C, mean ± SEM of ≥3) worked out at 0.014 ± 0.003 min⁻¹. The “recovery of histamine induced calcium mobilization after washout (in words)” value in assay [2] (10x Ki pre-incubation, 10^-5 M histamine) is “even more delayed”. The “Steady-state recovery (%)” value in assay [2] (fitted Ymax of histamine-induced calcium response after washout, relative to vehicle pre-treated cells) came to 104 ± 10%. Further, the “RecT (receptor recovery time), calcium mobilization” value in assay [2] (setting [7]) amounted to 87 ± 20 min. For the same compound, in assay [3] (HeLa cells, increasing antagonist and histamine concentrations), the “antagonism of histamine-induced calcium mobilization after overnight pre-incubation (in words)” value is “full insurmountable inhibition”. Further, the “in vivo efficacy after depletion of free concentrations in the blood (in words)” value in the assay with H1R [4] is recorded as “hysteresis of efficacy”. Also, in assay [5], the “insurmountable antagonism of histamine DMR response after washout (in words)” value (“insurmountable antagonism” for short) is “pronounced” and the “suppression of maximal histamine DMR response after washout (in words)” value was “suppressed the Emax up to 2 h”.

Consider `CN(C)CC/C=C1/c2ccccc2COc2ccc(CC(=O)O)cc21` [Olopatadine, olopatadine], for which, in assay [2], the “krec (recovery rate of histamine induced calcium mobilization)” value came out at 0.006 ± 0.001 min⁻¹ and the “recovery of histamine induced calcium mobilization after washout (in words)” value is listed as “even more delayed”. Further, the “RecT (receptor recovery time), calcium mobilization” value in assay [2] (setting [7]) is given as 226 ± 60 min. Besides, the “antagonism of histamine-induced calcium mobilization after overnight pre-incubation (in words)” value in assay [3] is reported as “full insurmountable inhibition”. Further, in assay [5], the “insurmountable antagonism” value is “pronounced” and the “suppression of maximal histamine DMR response after washout (in words)” value was “suppressed the Emax up to 2 h”.

Consider `Cc1ccc(/C(=C\CN2CCCC2)c2ccccn2)cc1` [Triprolidine, triprolidine], for which, in assay [5], the “insurmountable antagonism” value was “showed insurmountable antagonism, but this was the same at 1 and 2 h”.

Consider `CN1CCCC(n2nc(Cc3ccc(Cl)cc3)c3ccccc3c2=O)CC1` (centres unmarked) [azelastine], for which the “inhibition of histamine-induced, H1R mediated bronchial contraction (in words)” value in the assay on H1R [1] was “retained a long inhibition”.

Consider `NCCc1c[nH]cn1` [histamine], for which the “Hill slope of histamine, calcium mobilization” value in assay [3] is 1.1 ± 0.1. Moreover, the “Hill slope of histamine, DMR (AUC)” value in assay [6] (AUC) is 0.88. In addition, the “Hill slope of histamine, DMR (peak response)” value in assay [6] (peak response) was 0.92.

Source of the values: paper PMC5627017 (Frontiers in Pharmacology, 2017).
